Assay results published in patent US5877210A, “Phosphotyrosine phosphatase inhibitors or phosphotyrosine kinase activators for controlling cellular proliferation” (priority 1995, dated 1999).
Entries after “also recorded” stand apart in the source; their conditions may differ.

Key:
[1] = system: mixed lymphocyte response cultures dependent on CD28 costimulation; assay: Mixed lymphocyte response cultures; type: cell-based; conditions: 0.5 to 5 μM BMLOV
Description: Mixed lymphocyte response cultures that are dependent on CD28 costimulation were inhibited by over 50% by 0.5 to 5 μM BMLOV (FIG. 8).

Ramos = assay: Clonogenic assay in methylcellulose; type: cell-based, human; conditions: Ramos; for colonies formed: seven days
Description: (§1) The selective cytotoxicity of BMLOV was examined in clonogenic assays. Cells were grown in methylcellulose media and the number of colonies formed after seven days of treatment with various doses of the drug were determined. The clonogenic assays were performed with six replicates for each treatment as described [F. M. Uckun et al., J. Exp. Med. 163:347-368 (1986); F. M. Uckun & J. A. Ledbetter, Proc. Natl. Acad. Sci. USA 85:8603-8607 (1988)). The data is given plus/minus the standard error of the mean.
(§2) For assays of cellular proliferation, cells were grown five days in the presence of the indicated concentrations of BMLOV, pulsed 6 hr with [^3 H]-thymidine (New England Nuclear, Boston, Mass.), and counted in a liquid scintillation counter. Human peripheral blood lymphocytes (PBL) from normal volunteers were isolated from lymphocyte separation medium (Litton Bionetics, Kensington, Md.) by density gradient centrifugation. Monocytes were depleted from PBL by two rounds of plastic absorption for 30 minutes at 37° C. B cells were enriched for by negative selection using complement plus monoclonal antibodies to CD2, CD3, CD4, and CD8 for complement depletion. Clonogenic assays of colony formation in methylcellulose medium were performed as previously described (F. M. Uckun et al. (1992), supra).

HL-60 [2] = assay: Clonogenic assay in methylcellulose; type: cell-based, human; conditions: for colonies formed: seven days
Description: as §1, §2

Raji = assay: Clonogenic assay in methylcellulose; type: cell-based, human; conditions: for colonies formed: seven days
Description: as §1, §2

HL-60 [3] = assay: [3H]thymidine incorporation assay; type: cell-based, human; conditions: for [3H]cpm incorporation: seven days
Description: (§3) For each cell type, the cells were passaged uniformly for all drug doses given during the seven-day period. The cells were then pulsed for six hours with [^3 H]thymidine. The extent of DNA synthesis was then determined by counting the radioactivity incorporated into the cells.
as §2

CEM = assay: [3H]thymidine incorporation assay; type: cell-based, human; conditions: for [3H]cpm incorporation: seven days
Description: as §3, §2

[4] = system: antibody-producing B cells; assay: Class-switching: Ig production by anti-CD40 + IL-4 treated B cells; type: cell-based, human
Description: The effects of BMLOV were assayed on class-switching in antibody-producing B cells. Human B cells producing antibody were treated with anti-CD40 antibody plus IL-4, which increased production of IgE over 10-fold (Table 7). […] In contrast, the production of IgG1 and IgG4 was much less affected, particularly at a dose of 5.6 μM BMLOV. This selective effect is important because the IgG antibody production is an important response to infectious disease. It would be of value to suppress IgE production for the treatment of allergies while maintaining IgG production, particularly in conditions in which an allergy coexists with an infectious disease. A common example is the exacerbation of allergic rhinitis (hay fever) as the result of a respiratory infection.

[5] = system: L1210 murine T cell leukemia cells; assay: Apoptosis: DNA fragmentation on agarose gel; type: cell-based; conditions: pV(phen), FIG. 18
Description: For these experiments, cell samples (2×10^6 cells) were centrifuged at 200× g, the media removed by aspiration and the cell pellets stored at -70° C. until processing. Cell pellets were resuspended in 300 μl digestion buffer (100 mM NaCl, 10 mM Tris-HCl, pH 8.0, 25 mM EDTA, 0.5% SDS, 0.1 mg/ml protease K) and incubated for 12 hours at 50° C. DNase-free ribonuclease (5 μg) in 200 μl TE buffer (10 mM Tris-HCl, pH 7.5, 1 mM EDTA) was added to each sample followed by incubation for 2 hours at 37° C. DNA was then extracted once with phenol:chloroform, once with chloroform and then precipitated with 0.5 volumes of ammonium acetate and 2 volumes of ethanol at -70° C. for 12 hours. The precipitated DNA was resuspended in 200 μl TE buffer and quantitated by absorbance at 260 nanometers. The DNA (15 μg) was applied to a 1.3% agarose gel in TBE buffer (89 mM Tris base, 89 mM boric acid, 2 mM EDTA) resolved at 20 mA constant current and the DNA was visualized by staining with ethidium bromide. Fragmented DNA due to apoptosis appeared as a ladder of bands on the gel.
L1210 murine T cell leukemia cells were treated with the indicated concentrations of pV(phen) for the indicated times and the DNA was examined by gel electrophoresis as in Example 3.

[6] = Anti-CD40 + IL-4 + 0.002 μM BMLOV
[7] = Anti-CD40 + IL-4 + 0.008 μM BMLOV
[8] = Anti-CD40 + IL-4 + 0.02 μM BMLOV
[9] = Anti-CD40 + IL-4 + 0.07 μM BMLOV
[10] = Anti-CD40 + IL-4 + 0.2 μM BMLOV
[11] = Anti-CD40 + IL-4 + 0.6 μM BMLOV
[12] = Anti-CD40 + IL-4 + 1.9 μM BMLOV
[13] = Anti-CD40 + IL-4 + 5.6 μM BMLOV

## Cc1occc(=O)c1[O-].Cc1occc(=O)c1[O-].[O]=[V+2] [BMLOV, Bis(maltolato)oxovanadium (IV)]
[1]
  inhibition of mixed lymphocyte response: over 50%
Ramos; 1 μM BMLOV
  percentage of inhibition of clonogenic growth: 95.6%
  colonies formed: 179 ± 33 colonies per 10^4 cells
Ramos; 5 μM BMLOV
  percentage of inhibition of clonogenic growth: 99.8%
  colonies formed: 7 ± 2 colonies per 10^4 cells
Ramos; 10 μM BMLOV
  percentage of inhibition of clonogenic growth: greater than 99.9%
  colonies formed: 0 colonies per 10^4 cells
HL-60 [2]; 1 μM BMLOV
  percentage of inhibition of clonogenic growth: 99.4%
  colonies formed: 31 ± 8 colonies per 10^4 cells
HL-60 [2]; 5 μM BMLOV
  percentage of inhibition of clonogenic growth: 99.4%
  colonies formed: 31 ± 8 colonies per 10^4 cells
HL-60 [2]; 10 μM BMLOV
  percentage of inhibition of clonogenic growth: 99.7%
  colonies formed: 15 ± 4 colonies per 10^4 cells
Raji; 1 μM BMLOV
  percentage of inhibition of clonogenic growth: 60.3%
  colonies formed: 1291 ± 283 colonies per 10^4 cells
Raji; 5 μM BMLOV
  percentage of inhibition of clonogenic growth: 99.9%
  colonies formed: 4 ± 0.6 colonies per 10^4 cells
Raji; 10 μM BMLOV
  colonies formed: 3 ± 0.8 colonies per 10^4 cells
HL-60 [3]; 1 μM BMLOV
  [3H]cpm incorporation: 191637 cpm
HL-60 [3]; 5 μM BMLOV
  [3H]cpm incorporation: 276505 cpm
HL-60 [3]; 10 μM BMLOV
  [3H]cpm incorporation: 222178 cpm
HL-60 [3]; 25 μM BMLOV
  [3H]cpm incorporation: 11398 cpm
HL-60 [3]; 25 μM, 5 or 7 days
  sensitivity of proliferation to BMLOV, in words: moderately sensitive; also recorded: showed an inhibition of growth
CEM; 1 μM BMLOV
  [3H]cpm incorporation: 368721 cpm
CEM; 5 μM BMLOV
  [3H]cpm incorporation: 403576 cpm
CEM; 10 μM BMLOV
  [3H]cpm incorporation: 371256 cpm
CEM; 25 μM BMLOV
  [3H]cpm incorporation: 313714 cpm
CEM; 25 μM, 5 or 7 days
  sensitivity of proliferation to BMLOV, in words: resistant; also recorded: only small effects
[4]; 5.6 or 17 μM BMLOV
  increased production of IgE, in words: markedly inhibited
[4]; [6]
  [Ig] IgE: 3.9 ng/mL
  [Ig] IgG1: 450 ng/mL
  [Ig] IgG4: 1.7 ng/mL
  [Ig] IgM: 20.4 ng/mL
[4]; [7]
  [Ig] IgE: 2.6 ng/mL
  [Ig] IgG1: 450 ng/mL
  [Ig] IgG4: 1.1 ng/mL
  [Ig] IgM: 20.4 ng/mL
[4]; [8]
  [Ig] IgE: 4.5 ng/mL
  [Ig] IgG1: 390 ng/mL
  [Ig] IgG4: 1.3 ng/mL
  [Ig] IgM: 19.2 ng/mL
[4]; [9]
  [Ig] IgE: 5.1 ng/mL
  [Ig] IgG1: 450 ng/mL
  [Ig] IgG4: 2.7 ng/mL
  [Ig] IgM: 12.0 ng/mL
[4]; [10]
  [Ig] IgE: 7.5 ng/mL
  [Ig] IgG1: 495 ng/mL
  [Ig] IgG4: 1.2 ng/mL
  [Ig] IgM: 13.8 ng/mL
[4]; [11]
  [Ig] IgE: 5.7 ng/mL
  [Ig] IgG1: 480 ng/mL
  [Ig] IgG4: 1.3 ng/mL
  [Ig] IgM: 17.4 ng/mL
[4]; [12]
  [Ig] IgE: 3.0 ng/mL
  [Ig] IgG1: 450 ng/mL
  [Ig] IgG4: 2.7 ng/mL
  [Ig] IgM: 15.6 ng/mL
[4]; [13]
  [Ig] IgE: 1.2 ng/mL
  [Ig] IgG1: 480 ng/mL
  [Ig] IgG4: 1.8 ng/mL
  [Ig] IgM: 18.6 ng/mL
[4]; Anti-CD40 + IL-4 + 17 μM BMLOV
  [Ig] IgE: 0.8 ng/mL
  [Ig] IgG1: 450 ng/mL
  [Ig] IgG4: 0.8 ng/mL
  [Ig] IgM: 18.0 ng/mL
[4]; Anti-CD40 + IL-4 + 50 μM BMLOV
  [Ig] IgE: 0.2 ng/mL
  [Ig] IgG1: 60 ng/mL
  [Ig] IgG4: 0.5 ng/mL
  [Ig] IgM: 5.1 ng/mL

## [Na+].[O]=[V-]12([O][O]1)[O][O]2.c1cnc2c(c1)ccc1cccnc12 [pV(phen), sodium (1,10-phenanthroline) oxodiperoxovanadium (V)]
[5]
  induction of apoptosis (DNA fragmentation): fragmentation of DNA demonstrates apoptosis
